From patent publication US4232035A, “Carbamate pesticidal compounds compositions and methods of use” (priority 1975, dated 1980)

How the values were obtained:
Type in all cases: in vivo
[1] = test system: Mexican bean beetle (Epilachna varivestis, Muls.); assay: Mexican Bean Beetle Leaf Spray Test; parameters: key: A: excellent control; B: partial control; C: no control; conditions: 500 parts per million leaf spray; fourth instar larvae; three days
Procedure: (§1) Suspensions of the test compounds were prepared by dissolving one gram of compound in 50 milliliters of acetone in which had been dissolved 0.1 gram (10 percent of the weight of compound) of an alkylphenoxy polyethoxyethanol surfactant, as an emulsifying or dispersing agent. The resulting solution was mixed into 150 milliliters of water to give roughly 200 milliliters of a suspension containing the compound in finely divided form. The thus-prepared stock suspension contained 0.5 percent by weight of compound. The test concentrations in parts per million by weight employed in the tests described hereinbelow were obtained by appropriate dilutions of the stock suspension with water. The test procedures were as follows:
Fourth instar larvae of the Mexican bean beetle (Epilachna varivestis, Muls.), reared on Tendergreen bean plants at a temperature of 80°±5° F. and 50±5 percent relative humidity, were the test insects.
The test compounds were formulated by diluting the stock suspension with water to give a suspension containing 500 parts of test compound per million parts of final formulation. Potted Tendergreen bean plants of standard height and age were placed on a revolving turntable and sprayed with 100-110 milliliters of test compound formulation by use of a DeVilbiss spray gun set at 10 psig air pressure. This application, which lasted 25 seconds, was sufficient to wet plants to run-off. As a control, 100-110 milliliters of a water-acetone-emulsifier solution containing no test compound were also sprayed on infested plants. When dry, the paired leaves were separated and each was placed in a 9 centimeter Petri dish lined with moistened filter paper. Five randomly selected larvae were introduced into each dish, and the dishes were closed. The closed dishes were labeled and held at a temperature of 80°±5° F. for three days. Although the larvae could easily consume the leaf within 24 to 48 hours, no more food was added. Larvae which were unable to move the length of the body, even upon stimulation, were considered dead.

[2] = test system: southern armyworm (Prodenia eridania, (Cram.)); assay: Southern Armyworm Leaf Spray Test; parameters: key: A: excellent control; B: partial control; C: no control; conditions: 500 parts per million leaf spray; three days
Procedure: as §1
Larvae of the southern armyworm (Prodenia eridania, (Cram.)), reared on Tendergreen bean plants at a temperature of 80°±5° F. and a relative humidity of 50±5 percent, constituted the test insects.
The test compounds were formulated by diluting the stock suspension with water to give a suspension containing 500 parts of test compound per million parts of final formulation. Potted Tendergreen bean plants of standard height and age were placed on a revolving turntable and sprayed with 100-110 milliliters of test compound formulation by use of a DeVilbiss spray gun set at 10 psig air pressure. This application, which lasted 25 seconds, was sufficient to wet plants to run-off. As a control, 100-110 milliliters of a water-acetone-emulsifier solution containing no test compound were also sprayed on infested plants. When dry, the paired leaves were separated and each one was placed in a 9 centimeter Petri dish lined with moistened filter paper. Five randomly selected larvae were introduced into each dish and the dishes were closed. The closed dishes were labeled and held at 80°-85° F. for three days. Although the larvae could easily consume the whole leaf within twenty-four hours, no more food was added. Larvae which were unable to move the length of the body, even upon stimulation by prodding, were considered dead. Percent mortality was recorded for various concentration levels.

[3] = test system: root-knot nematode (Meloidogyne incognita var. acrita); assay: Nematode Test; parameters: key: 1: severe galling; equal to untreated control; 2: moderate galling; 3: light galling; 4: very light galling; 5: no galling; conditions: 10 ml of 500 parts per million formulation per jar of soil; cucumber indicator crop, approximately three weeks
Procedure: as §1
Infective migratory larvae of the root-knot nematode, (Meloidogyne incognita var. acrita) were reared in the greenhouse on roots of Rutgers variety tomato plant. Infected tomato plants were removed from the culture and the roots were chopped very finely. A small amount of inoculum from the roots was added to pint Mason jars containing approximately 180 cc of soil. The jars containing the inoculum and soil were capped and incubated for one week at room temperature. During this period eggs of the nematode hatched and the larvae forms migrated into the soil.
The test compounds were formulated by diluting the stock suspension with water to give a suspension containing 500 parts of test compound per million parts of final formulation. 10 milliliters of the test formulation was added to each of two jars for each dosage treated. As a control 10 milliliters of a water-acetone-emulsifier solution containing no test compound was also added to jars containing nematode larvae. The jars were capped and the contents thoroughly mixed on a kale mill for five minutes. The jars remained capped at room temperature for a period of 48 hours and the contents were then transferred to 3 inch pots. Subsequently, the pots were seeded to cucumber as an indicator crop and placed in the green house where they were cared for in the normal fashion for growing potted cucumber for approximately three weeks. These cucumber plants were then removed from the pots, the soil washed from the roots and the amount of galling visually rated.

[4] = test system: two-spotted mite (Tetranychus urticae Koch); assay: Mite Foliage Spray Test; parameters: key: A: excellent control; B: partial control; C: no control; conditions: 500 parts per million foliage spray; six days
Procedure: as §1
Adults and nymphal stages of the two-spotted mite (Tetranychus urticae Koch), reared on Tendergreen bean plants at 80±5 percent relative humidity, were the test organisms. Infested leaves from a stock culture were placed on the primary leaves of two bean plants six to eight inches in height, growing in a two-and-a-half inch clay pot. 150-200 Mites, a sufficient number for testing, transferred from the excised leaves to the fresh plants in a period of twenty four hours. Following the twenty four hour transfer period, the excised leaves were removed from the infested plants. The test compounds were formulated by diluting the stock suspension with water to give a suspension containing 500 parts of test compound per million parts of final formulation. The potted plants (one pot per compound) were placed on a revolving turntable and sprayed with 100-110 milliliters of test compound formulation by use of a DeVilbiss spray gun set at 40 psig. air pressure. This application, which lasted 25 seconds, was sufficient to wet the plants to run-off. As a control, 100-110 milliliters of a water solution containing acetone and emulsifier in the same concentrations as the test compound formulation, but containing no test compound, were also sprayed on infested plants. The sprayed plants were held at 80±5 percent relative humidity for six days, after which a mortality count of motile forms was made. Microscopic examination for motile forms was made on the leaves of the test plants. Any individual which was capable of locomotion upon prodding was considered living.

Compound | M. Bean Beetle, pesticidal activity rating [1] | S. Armyworm, pesticidal activity rating [2] | Nematodes, nematocidal toxicity rating (galling) [3] | Mite, pesticidal activity rating [4]
CN(SSC(C)(C)C)C(=O)ON=C1SC(C)(C)C(=O)N1C | A | A | 1 | C
CN(SSC(C)(C)C)C(=O)ON=C1SCCS1 | A | A | 5 | C
